The source of these data is patent publication US7122335B1, “Compounds and methods to enhance rAAV transduction” (priority 1999, dated 2006).

Experiment [1] deals with polarized human airway epithelia. The experiment can be described thus: In situ localization of S35-labeled rAAV particles (photoemulsion, morphometry). It counts as cell-based. The settings on record: 2 hours post-infection, apical or basolateral infection. On the procedure:
FIG. 13. In situ localization of rAAV in the polarized airway epithelia using S^35 labeled virus. Polarized human airway epithelia were infected with S^35-labeled virus (MOI=50,000 particles/cell) from either the apical or basolateral side (+/−LLnL). At 2 hours post-infection, transwells were washed with media three times and fixed in 4% paraformaldehyde overnight prior to cryoprotection in sucrose and OCT embedding. 10 μm frozen sections were overlaid with photoemulsion and developed after 5 weeks of exposure. Panel A depicts the typical localization pattern following basolateral infection in the presence of LLnL. Arrows indicate nuclear-associated virus. Panel B presents enlargements of boxed regions in Panel A. Blinded morphometric quantification was performed by counting the number of nuclear-associated and cytoplasmic radioactive grains of 10 random fields, as shown in Panel A. A total of 60 cells was quantitated per field, to give a total of 600 cells per sample and 2400 cells per condition. Results in Panel C are the mean +/−SEM of four independent samples for each condition.
Cryosections of polarized airway epithelial cells infected with ^35S-labeled AV.GFP3ori (MOI=50,000 particles/cell) from the apical or basolateral sides in the presence or absence of LLnL were overlaid with photographic emulsion and exposed for 5 weeks prior to developing. […]

Experiment [2] deals with human bronchial epithelia. The experiment can be described thus: Southern blot of Hirt DNA for rAAV genomes in polarized airway epithelia. The experiment is classed as cell-based. On the procedure:
FIGS. 15A–C. Examination of rAAV endocytosis by Southern blot analysis of viral DNA. Hirt DNA from AV.GFP3ori infected or mock infected (Lanes 1 and 7 in both FIGS. 15A and 15B) human bronchial epithelia were extracted for a direct examination of viral genomes by Southern blotting against a P^32-labeled EGFP probe. FIG. 15A depicts viral binding studies in the presence and absence of LLnL with or without EGTA treatment prior to apical or basolateral infection for 1 hour at 4° C. Cell surface-bound virus was completely removed by trypsin (FIG. 15A, lanes 2 through 6). To determine the amount of the surface-bound rAVV, cells were infected with AV.GFP3ori for 1 hour at 4° C. and were not treated with trypsin prior to Hirt DNA extraction. Panel A: lane 8: apical AAV infection; lane 9: apical AAV infection in the presence of LLnL; lane 10: cells were pre-treated with hypotonic EGTA prior to apical infection in the presence of LLnL; lane 11: basolateral infection; lane 12: basolateral infection in the presence of LLnL. FIG. 15B depicts the results of studies evaluating rAAV internalization from either the apical or the basolateral surface in the presence or absence of LLnL, and the internalization from the apical surface after combined treatment with hypotonic EGTA and LLnL. To detect the net amount of the internalized viral genome, all samples in FIG. 15B were treated with trypsin just before Hirt DNA was harvested. The extent of the internalized virus at 4 hours (FIG. 15B, lanes 2 through 6) and 24 hours (FIG. 15B, lanes 8 through 12) incubation at 37° C. after infection is represented by the intensity of the 1.6 kb single stranded viral genome band. FIG. 15B; lane 2; apical AAV infection for 4 hours; lane 3: apical AAV infection in the presence of LLnL for 4 hours; lane 4: cells were pre-treated with hypotonic EGTA prior to apical infection in the presence of LLnL for 4 hours; lane 5: basal infection for 4 hours; lane 6: basolateral infection in the presence of LLnL for 4 hours; lane 8: apical infection for 24 hours; lane 9: apical infection in the presence of LLnL for 24 hours; lane 10: cells were pre-treated with hypotonic EGTA prior to apical infection in the presence of LLnL for 24 hours; lane 11: basolateral infection for 24 hours; lane 12: basolateral infection in the presence of LLnL for 24 hours. […]
Molecular analysis of rAAV viral genomes owing infection of polarized airway epithelial cultures. […] Following binding, the extent of viral internalization was assessed by continuing incubations in the presence of virus at 37° C. for 4–24 hours. […] The 1.6 kb single stranded viral DNA, the 2.7 kb double stranded circular intermediate, and the 4.7 kb double stranded replication from viral genome were detected with a transgene EGFP specific probe at 5×10^6 cpm/ml. […]

“Also recorded” adds a separate entry of the source.

As to “N-acetyl-L-leucinyl-L-leucinal-L-norleucinal [LLnL]”, in experiment [1], the “intracellular distribution of radiolabeled rAAV particles (nuclear vs cytoplasmic grains)” value is given as “significant increase in nuclear trafficking; also recorded: significant shift to nuclear associated grains”. Besides, the “rAAV binding to either surface (Southern blot)” value in experiment [2] (1 hour at 4° C.) is recorded as “not affected”. In addition, the “enzymatic degradation of internalized AAV viral DNA” value in experiment [2] (LLnL alone) is listed as “did not substantially prevent enzymatic degradation”. Moreover, the “amount of virus internalized from apical surface” value in experiment [2] (hypotonic EGTA pretreatment and LLnL) was “substantially increased the amount of virus internalized”.
